The assay in a line: Antagonist activity against PAR2 in human HT29 cells assessed as inhibition of UTP-induced Ca2+ responses pre-incubated for 30 mins before UTP stimulation by FLIPR assay.

Molecules are shown by their SMILES.

Consider `CCOC(=O)[C@H]1CCCN(C(=O)c2cn3nc(-c4ccc(F)cc4)cc(C(F)(F)F)c3n2)[C@@H]1C`, for which the IC50 was found to be 4.4 µM.
